Measured values: patent US4504470A, “Pharmaceutical preparations containing TRH or its analogue” (Takeda Chemical Industries, Ltd., priority 1981, dated 1985)
Where two headings read alike, the source gives them in different places.

Columns and labels:
[1] = Absorption of DN-1417 (14C-DN-1417) administered by various routes to rats, plasma AUC; type: in vivo; conditions: for bioavailability as compared with subcutaneous application: no absorption enhancer, 2 mg/kg
Description: Male rats of SD strain weighing ca. 300 g, which had been fasted for 24 hours, were dosed with an amount of ^14 C-DN-1417 corresponding to 2 mg/kg of DN-1417 by the rectal, nasal, oral cavity and oral routes. The dosage form for nasal, oral cavity or oral administration was either an aqueous solution or an oil solution, and for nasal administration, 0.02 ml of the solution was given with a micropipette; for oral cavity application, a wad of cotton soaked with 0.02 ml of the solution was sublingually administered; and for oral administration, 1 ml of the solution was given by gavage. For rectal administration, 0.1 ml of an aqueous solution was given using a pipette. In the case of a polyethylene glycol suppository and Witepsol W-35 (Dynamit Nobel Chemicals, West Germany) suppository, 50 mg of either suppository was deposited 1.5 cm from the anus.
After administration, 0.2 ml of blood was taken from the cordal vein at timed intervals and the plasma radioactivity was measured with a scintillation counter. Separation of the unmetabolized compound from metabolites was performed by thin-layer electrophoresis. For the evaluation of absorption rates, the area under a curve of the plasma concentration of DN-1417 over a period of 6 hours after administration [AUC (0-6 hr.)] was compared with the corresponding value obtained by subcutaneous administration to calculate the bioavailability of the drug.

[2] = set-up: species or system rats; conditions: rat, in vivo; for AUC (0-2 hr.): po, 2 mg/kg
Description: Using male SD-strain rats weighing ca. 300 g which had been fasted for 24 hours in groups of 3 animals, an amount of ^3 H-TRH equivalent to 2 mg/kg of TRH was administered by the rectal, nasal and oral routes.
The method and volume of administration, the method of collecting blood samples and the method of determination were all the same as described in Experimental Example 1. Evaluation of absorption ratio was made using as a parameter the plasma level of TRH.

| Compound | effect on absorption ([1]; addition of a hydroxycarboxylic acid) | effect on absorption ([1]; addition of amino acids, lecithin, etc.) | bioavailability as compared with subcutaneous application ([1]; nasal) [%] | bioavailability as compared with subcutaneous application ([1]; rectal) [%] | absorption from the rectal and nasal mucosa [2] | AUC (0-2 hr.) ([2]; pH 2.1) [ng·h/mL] | AUC (0-2 hr.) ([2]; pH 3.2) [ng·h/mL] |
| --- | --- | --- | --- | --- | --- | --- | --- |
| NC(=O)[C@@H]1CCCN1C(=O)[C@H](Cc1c[nH]cn1)NC(=O)C1CCC(=O)O1 (stereo partly drawn) [DN-1417, γ-butyrolactone-γ-carbonyl-L-histidyl-L-prolinamide] | remarkable improvement in absorption | does not result in any significant improvement of absorption | 21 | 25 |  |  |  |
| NC(=O)[C@@H]1CCCN1C(=O)[C@H](Cc1cnc[nH]1)NC(=O)[C@@H]1CCC(=O)N1 [TRH, L-pyroglutamyl-L-histidyl-L-prolinamide] |  |  |  |  | enhanced | 1100 | 700 |
